This is an account of results in ChEMBL document CHEMBL2390848, “Anticancer effect of altersolanol A, a metabolite produced by the endophytic fungus Stemphylium globuliferum, mediated by its pro-apoptotic and anti-invasive potential via the inhibition of NF-κB activity” (Bioorg Med Chem, 2013).

The test system of data set [1] is K562. Put plainly: Cytotoxicity against human K562 cells at 100 uM after 24 hrs by trypan blue exclusion test. The format is functional, cell-based.
The subject of data set [2] is K562. Put plainly: Inhibition of TNFalpha-induced NF-kappa-B transcriptional activity in human K562 cells pretreated with compound at 100 uM for 2 hrs measured 6 hrs post TNFalpha challenge by luciferase reporter gene assay. The format is cell-based. A general note: A reporter such as luciferase makes a cellular process visible.
In data set [3] the test system is K562. The experiment in a line: Antiproliferative activity against human K562 cells measured at 6 hrs over 120 hrs by videomicroscopy analysis. Format: functional, cell-based.
The test system of data set [4] is A549. The experiment in a line: Antimigratory activity against human A549 cells treated at 25 uM after scratching measured at 6 hrs interval over 120 hrs by scratch-wound assay. Format: functional, cell-based.
For data set [5], the system named is PBMC. The experiment in a line: Effect on metabolism of human PBMCs after 24 hrs by CellTiter-Glo luminescent cell viability assay. The format is functional, cell-based. In general terms: Cellular ATP, detected with luciferase, serves as a proxy for viable cell number.
Data set [6] has as its system K562. The experiment in a line: Cell cycle arrest in human K562 cells assessed as accumulation at sub-G1 phase at 0.2 to 10 uM by flow cytometry. The settings on record: TDE = time-dependent effect. The format is functional, cell-based. For orientation: A flow cytometer gives signals particle by particle.
Data set [7] relates to K562. Put plainly: Cell cycle arrest in human K562 cells assessed as accumulation at sub-G1 phase after 16 to 72 hrs by flow cytometry. Format: functional, cell-based.
Data set [8] deals with K562. Put plainly: Induction of apoptosis in human K562 cells assessed as reduction in Bcl-xL expression after 16 to 72 hrs by Western blot analysis. Format: functional, cell-based.
Data set [9] concerns K562. Put plainly: Induction of apoptosis in human K562 cells assessed as reduction in XIAP expression after 16 to 72 hrs by Western blot analysis. Format: functional, cell-based.
For data set [10], the system named is K562. Put plainly: Cytotoxicity against human K562 cells after 48 hrs by trypan blue exclusion test. The note with it: K562, 48 h. Format: functional, cell-based.
For data set [11], the system named is K562. The experiment in a line: Cytotoxicity against human K562 cells at 0.5 to 100 uM after 8 to 72 hrs by trypan blue exclusion test. Format: functional, cell-based.
Data set [12] concerns A549. Put plainly: Antiproliferative activity against human A549 cells measured at 6 hrs over 120 hrs by videomicroscopy analysis. Format: functional, cell-based.
Data set [13] deals with K562. Put plainly: Induction of apoptosis in human K562 cells assessed as reduction in Mcl-1 expression after 16 to 72 hrs by Western blot analysis. Format: functional, cell-based.
Data set [14] concerns PBMC. The experiment in a line: Cytotoxicity against human PBMCs after 24 hrs by trypan blue exclusion test. Format: cell-based.
For data set [15], the system named is K562. The experiment in a line: Induction of apoptosis in human K562 cells assessed as cleavage of caspase-3 after 16 to 24 hrs by Western blot analysis. Format: functional, cell-based.
Data set [16] concerns K562. The experiment in a line: Cell cycle arrest in human K562 cells assessed as accumulation at sub-G1 phase after 24 hrs by flow cytometry relative to untreated control. The format is functional.
Data set [17] deals with K562. The experiment in a line: Induction of apoptosis in human K562 cells after 16 to 72 hrs using annexin V-propidium iodide staining by FACS analysis. Format: functional, cell-based.
The test system of data set [18] is K562. The experiment in a line: Cytotoxicity against human K562 cells after 24 hrs by trypan blue exclusion test. The format is functional, cell-based. The settings on record: K562, 24 h.
Data set [19] relates to K562. The experiment in a line: (§1) Inhibition of TNFalpha-induced NF-kappa-B transcriptional activity in human K562 cells pretreated with compound for 2 hrs measured 6 hrs post TNFalpha challenge by luciferase reporter gene assay. Format: cell-based.
Data set [20] in a line: as §1. The format is cell-based.
The test system of data set [21] is K562. Put plainly: Cell cycle arrest in human K562 cells assessed as accumulation at sub-G1 phase at 4 uM after 72 hrs by flow cytometry relative to untreated control. The format is functional.
The subject of data set [22] is K562. Put plainly: Cell cycle arrest in human K562 cells assessed as accumulation at sub-G1 phase after 16 hrs by flow cytometry relative to untreated control. Format: functional.
Data set [23] has as its system A549. Put plainly: Cytotoxicity against human A549 cells after 24 hrs by XTT assay. Format: functional, cell-based. The note with it: A549, 24 h.
For data set [24], the system named is K562. The experiment in a line: Induction of apoptosis in human K562 cells assessed as cleavage of caspase-9 after 16 to 24 hrs by Western blot analysis. Format: functional, cell-based.
The test system of data set [25] is K562. Put plainly: Cell cycle arrest in human K562 cells assessed as accumulation at sub-G1 phase at 4 uM after 48 hrs by flow cytometry relative to untreated control. The format is functional.

Activity calls are given as the source filed them. The calls are words filed in the database; no cut-off is given here.

`COc1cc(O)c2c(c1)[C@H](O)[C@H]1C[C@](C)(O)[C@H](O)C[C@@H]1C2=O`: the result in data set [1] was inactive. Also, the inhibition result in data set [2] was “inactive”.

As to `COc1cc(O)c2c(c1)C(=O)C1=C(C2=O)[C@H](O)[C@@H](O)[C@@](C)(O)[C@@H]1O` [ALTERSOLANOL A], the EC50 was greater than 1 µM in [3]; 4.2 µM in data set [5]; 2.5 µM in data set [10]; greater than 2 µM in [12]; 4 µM in data set [18]; 29.5 µM in data set [23]. The outcome in data set [4] and in [11] was Active. Moreover, the Activity result in data set [6] was “tde”; in data set [7], “Dose-dependent effect”; in [8] it was “Dose-dependent effect”; in data set [9], “Dose-dependent effect”; in data set [13], “Dose-dependent effect”; in data set [14], “Non-toxic”. The Activity result in data set [15] was “Dose-dependent effect”; in data set [16], 40%; in data set [17] it was “Dose-dependent effect”; in data set [21], 65%; in data set [22], 40%; in [24], “Dose-dependent effect”. Also, in data set [25], the Activity is 65%. Further, the inhibition result in data set [19] is “Dose-dependent effect”. Moreover, the IC50 in [20] stood at 0.8 µM.

Turning to `COc1cc(OC(C)=O)c2c(c1)C(=O)C1=C(C2=O)[C@H](OC(C)=O)[C@@H](OC(C)=O)[C@@](C)(O)[C@@H]1OC(C)=O`, the EC50 in [10] is 2.5 µM; in [18], 4 µM. Also, in data set [11], the outcome was Active. Besides, the inhibition entry in data set [19] is “Dose-dependent effect”. In [20], the IC50 turned out to be 4.64 µM.

As to `COc1cc(O)c2c(c1)[C@H](O)[C@@H]1[C@@H](C2=O)[C@H](O)[C@@H](O)[C@@](C)(O)[C@@H]1O`, the result in data set [1] was inactive. In [2], the inhibition entry was “inactive”.

As usually defined, the EC50 is the midpoint of the concentration-response curve. A lower EC50 goes with an effect from little substance. The IC50 is the concentration that gives 50% inhibition.
